Measurements: PMC5520492, “Inhibition of DNA2 nuclease as a therapeutic strategy targeting replication stress in cancer cells” (Oncogenesis, 2017)

Experiments:
Bloom syndrome (BLM) = molecular target: T1, Bloom syndrome (BLM) (Homo sapiens, UniProt P54132); assay: dsDNA unwinding by BLM; format: biochemical; details: 10 µM
T1 construct: made in house
Description: Figure S2. […] (a) Analysis of 5’ flap processing by hDNA2 in presence of the compounds at the indicated concentration. DNA2 (2.5 nM) was incubated with the Y DNA substrate (5 nM ends) and the indicated concentration of inhibitor. (b) Plots showing quantitation of the experiments shown in a. Plotted are the average data from three independent experiments with the error bars representing one standard deviation. (c) Analysis of dsDNA unwinding by BLM. BLM (4, 8 and 16 nM), RPA (100 nM) and internally radiolabelled dsDNA (0.5 nM ends) was incubated for 20 min at 37^ºC in presence of either DMSO or NSC-105808 (10 µM) and the products were resolved on a 1% agarose gel. (d) Plots showing quantitation of the experiments shown in c. Plotted are the average data from three independent experiments with the error bars representing one standard deviation. (e) Analysis of the degradation of a 2 kb internally labeled dsDNA (0.5 nM ends) by EXO1 (5 nM) in presence of NSC-105808 (10 µM). (f) Plot showing quantitation of the experiment in e. […] 100 nM hDNA2 was incubated with γ^32P-ATP in the presence of oligonucleotide ssDNA (200 nM) for 20 minutes at 37^ºC in presence of either DMSO or inhibitor (10 µM) and the products were resolved on a TLC plate. (h) Analysis of hDNA2 binding to DNA. […]

U2OS cells = assay: RPA phosphorylation after camptothecin (immunofluorescence, chromatin fractionation); format: cell-based, human; details: NSC-105808 2 h, 0.3 μM; CPT 2 h, 1 μM
Description: (§1) Figure 4 NSC-105808 inhibits HR repair and DSB end resection. (a) Analysis of HR efficiency with the DR-green fluorescent protein (GFP) assay. Representative images of flow cytometry analysis and bar graph showing percentage of GFP cells from at least three independent experiments. Each value represents the mean±s.d. (b, c) Analysis of RPA phosphorylation in U2OS cells treated with NSC-105808 (2 h, 0.3 μM) and/or camptothecin (CPT; 2 h, 1 μM). (b) Representative images of cells subjected to immunofluorescent staining of p-RPA and bar graph showing percentage of cells with positive p-RPA staining from three independent experiments. Each value represents the mean±s.d. (c) Western blot analysis of chromatin fraction with the indicated antibodies. (d) Analysis of colony formation by FANCD2 (+/+) and FANCD2 (−/−) cells treated with cisplatin and/or NSC-105808. Each value is relative to the untreated control group of each cell line. The graph represents the mean±s.e.m. from three independent experiments. *P<0.01.
For the detection of DNA damage-induced p-RPA34 (S4/S8), immunofluorescent staining, and the preparation of chromatin fractions and western blot analyses were performed as described previously.[33], [48]

FANCD2−/− cells = assay: Colony formation with cisplatin in FANCD2-deficient cells; format: cell-based; details: cisplatin 0.3125 µM, NSC-105808 […]
Description: as §1
DNA2 knockdown cells were seeded at low density; cells were then left for 2 weeks to allow colonies to form. Cells were stained with 2% methylene blue/50% ethanol, and colonies containing 50 or more cells were counted. […] Colonies were fixed, stained, and scored ten days after treatment.

[1] = test system: MCF10AT1, MCF10-DCIS, MCF10CA1a versus MCF10A cells; assay: MTT proliferation, MCF10A progression series; format: cell-based, human; details: 48-h treatment
Description: Figure 5 Oncogene induction enhances sensitivity of cancer cells to NSC-105808. (a-e) Graphs showing proliferation of indicated cell lines in response to a 48-h treatment with the indicated concentrations of NSC-105808. Proliferation relative to cells treated with vehicle alone was determined by the 3-(4,5-dimethylthiazol-2-yl)-2,5-diphenyltetrazolium bromide (MTT) assay. Each value represents the mean±s.e.m. from three independent experiments. (a) Proliferation of control pancreatic epithelial cells DT-PD59 and transformed pancreatic cancer cells AsPC-1 and PANC-1. (b) Proliferation of normal breast epithelial cells MCF10A and breast cancer cells Hs578T and BT549. (c) Proliferation of MCF10A cells with or without H-Ras expression. H-Ras was induced with doxycycline (2 μg/ml). […]
Cell proliferation was measured by 3-(4,5-dimethylthiazol-2-yl)-2,5-diphenyltetrazolium bromide (Sigma) reduction (Supplementary Materials and Methods).
To determine the cell proliferation rate, 1000 cells/well were seeded in a 96-well plate in a total volume of 100 µl in triplicate in each experiment. […] Plates were read at 490 nm and 650 nm (background) in a
microplate reader (Molecular Devices). After the subtraction of background, cell viability was calculated as fold change relative to control cells.

T1 sequence (P54132 whole entry): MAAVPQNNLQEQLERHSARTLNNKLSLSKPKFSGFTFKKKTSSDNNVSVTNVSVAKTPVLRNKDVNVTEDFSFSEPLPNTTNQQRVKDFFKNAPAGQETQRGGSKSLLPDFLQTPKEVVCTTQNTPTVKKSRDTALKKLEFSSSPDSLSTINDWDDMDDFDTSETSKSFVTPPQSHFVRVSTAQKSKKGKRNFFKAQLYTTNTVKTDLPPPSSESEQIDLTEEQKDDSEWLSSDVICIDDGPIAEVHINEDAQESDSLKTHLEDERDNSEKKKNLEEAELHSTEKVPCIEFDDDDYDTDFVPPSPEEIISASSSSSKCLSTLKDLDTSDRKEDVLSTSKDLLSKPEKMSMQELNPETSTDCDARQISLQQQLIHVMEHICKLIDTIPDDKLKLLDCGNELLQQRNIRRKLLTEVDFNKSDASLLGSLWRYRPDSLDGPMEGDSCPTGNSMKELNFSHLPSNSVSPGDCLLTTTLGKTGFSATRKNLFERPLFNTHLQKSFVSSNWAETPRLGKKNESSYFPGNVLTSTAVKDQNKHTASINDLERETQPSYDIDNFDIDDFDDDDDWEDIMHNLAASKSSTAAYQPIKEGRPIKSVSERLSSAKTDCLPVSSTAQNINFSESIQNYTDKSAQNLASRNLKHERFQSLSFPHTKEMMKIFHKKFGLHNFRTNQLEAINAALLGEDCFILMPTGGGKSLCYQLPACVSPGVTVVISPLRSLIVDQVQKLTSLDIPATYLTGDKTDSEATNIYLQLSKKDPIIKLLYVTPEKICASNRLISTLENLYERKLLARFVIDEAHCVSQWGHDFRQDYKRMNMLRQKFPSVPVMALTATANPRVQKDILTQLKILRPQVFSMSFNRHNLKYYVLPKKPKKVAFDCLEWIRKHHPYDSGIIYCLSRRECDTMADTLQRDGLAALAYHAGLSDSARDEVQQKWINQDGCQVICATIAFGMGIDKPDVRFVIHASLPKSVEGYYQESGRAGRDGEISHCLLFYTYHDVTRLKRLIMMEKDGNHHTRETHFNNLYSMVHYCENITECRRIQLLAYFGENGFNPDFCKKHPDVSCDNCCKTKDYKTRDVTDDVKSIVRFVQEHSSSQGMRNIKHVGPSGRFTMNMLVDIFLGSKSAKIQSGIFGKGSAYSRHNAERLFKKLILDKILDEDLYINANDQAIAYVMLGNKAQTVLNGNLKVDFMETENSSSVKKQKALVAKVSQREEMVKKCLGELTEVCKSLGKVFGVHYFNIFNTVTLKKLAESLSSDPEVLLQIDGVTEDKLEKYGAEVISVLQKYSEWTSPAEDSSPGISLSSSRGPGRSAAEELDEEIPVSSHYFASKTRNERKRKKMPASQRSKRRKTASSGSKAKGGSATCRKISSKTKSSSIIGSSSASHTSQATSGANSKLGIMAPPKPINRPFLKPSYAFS

With `NC1=C(Br)C(=O)c2ncccc2C1=O` [NSC-105808, 6-amino-7-bromoquinoline-5,8-dione] the “Effect on ability of Bloom syndrome to unwind DNA” value (Bloom syndrome (BLM)) was “no effect”, the “Accumulation of camptothecin-induced p-RPA” value (U2OS cells) was “significantly attenuated” and the “γ-H2AX level in chromatin fraction” value (U2OS cells) was “concomitant enhancement”. The “Cisplatin sensitivity of FANCD2−/− cells (colony formation)” value (FANCD2−/− cells) was “lessened the cisplatin sensitivity” and the “Sensitivity of cell lines with oncogene activation compared with MCF10A control” value [1] was “more sensitive”.
